Source: ChEMBL document CHEMBL4765450, “The components and activities analysis of a novel anticoagulant candidate dHG-5” (Eur J Med Chem, 2020)
Active and inactive are the calls of the source. The rule behind the calls is not given here.

What was measured:
[1] = biological target: Coagulation factor XI (Homo sapiens) (UniProt P03951); assay: Inhibition of factor 11a (unknown origin) at IC50 using S-2366 as substrate preincubated for 1 min followed by chromogenic substrate addition and measured for 2 mins in presence of AT-III; conditions: time 3.0 min
[2] = biological target: T1, Coagulation factor IX/VIII (Homo sapiens) (UniProt P00740+P00451); assay: (§1) Inhibition of human citrated plasma iXase (factor 8a-factor 9a complex) preincubated for 2 mins followed by factor 10 addition and measured after 1 min by FXa chromogenic substrate SXa-11 based assay relative to dHG-5; assay type: protein-complex assay; conditions: time 3.0 min
[3] = biological target: T2, Coagulation factor VII (Homo sapiens) (UniProt P08709); assay: Inhibition of factor 7a (unknown origin) at IC50 using pefachrome factor VIIa as substrate preincubated for 1 min followed by chromogenic substrate addition and measured for 2 mins; conditions: time 3.0 min
T2 sequence (whole entry): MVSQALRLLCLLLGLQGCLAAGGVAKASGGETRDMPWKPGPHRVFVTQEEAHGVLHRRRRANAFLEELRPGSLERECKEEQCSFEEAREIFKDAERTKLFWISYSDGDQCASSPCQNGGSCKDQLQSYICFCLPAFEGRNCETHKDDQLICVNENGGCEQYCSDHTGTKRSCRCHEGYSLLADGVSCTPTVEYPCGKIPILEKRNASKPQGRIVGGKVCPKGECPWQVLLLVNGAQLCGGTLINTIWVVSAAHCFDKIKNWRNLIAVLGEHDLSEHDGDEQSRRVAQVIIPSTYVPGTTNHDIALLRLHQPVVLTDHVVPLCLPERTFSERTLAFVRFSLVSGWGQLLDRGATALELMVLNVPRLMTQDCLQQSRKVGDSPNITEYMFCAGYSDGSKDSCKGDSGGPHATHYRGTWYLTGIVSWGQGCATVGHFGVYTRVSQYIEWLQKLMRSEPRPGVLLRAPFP

[4] = biological target: Coagulation factor X (Homo sapiens) (UniProt P00742); assay: Inhibition of factor 10a (unknown origin) at IC50 preincubated for 1 min followed by chromogenic substrate addition and measured for 2 mins; conditions: time 3.0 min
[5] = biological target: Coagulation factor X (Homo sapiens) (UniProt P00742); assay: Inhibition of factor 10a (unknown origin) at IC50 preincubated for 1 min followed by chromogenic substrate addition and measured for 2 mins in presence of AT-III; conditions: time 3.0 min
Coagulation factor IX [6] = biological target: T3, Coagulation factor IX (Homo sapiens, UniProt P00740); assay: Inhibition of factor 9a (unknown origin) binding to immobilized biotinylated oHG-11 by biolayer interferometry relative to dHG-5
Plasma [7] = assay: Anticoagulation activity in human plasma assessed as drug level causing 20 times doubling of APTT by measuring activity potency of oligosaccharides multiplied by the percentage of oligosaccharides in dHG-5 preincubated for 2 mins followed by APTT reagent and measured after 3 mins by coagulometric method relative to dHG-5; assay type: functional; conditions: time 5 min
[8] = biological target: T1, Coagulation factor IX/VIII (Homo sapiens); assay: as §1, with “complex) assessed as activity potency of oligosaccharides multiplied by the percentage of oligosaccharides in dHG-5” for “complex)”; assay type: protein-complex assay; conditions: time 3.0 min
[9] = biological target: Prothrombin (Homo sapiens) (UniProt P00734); assay: Inhibition of factor 2a (unknown origin) at IC50 preincubated for 1 min followed by chromogenic substrate addition and measured for 2 mins; conditions: time 3.0 min
[10] = biological target: T4, Coagulation factor XII (Homo sapiens) (UniProt P00748); assay: Inhibition of factor 12a (unknown origin) at IC50 using kallikrein chromogenic substrate preincubated for 1 min followed by chromogenic substrate addition and measured for 2 mins in presence of AT-III; conditions: time 3.0 min
T4 sequence (whole entry): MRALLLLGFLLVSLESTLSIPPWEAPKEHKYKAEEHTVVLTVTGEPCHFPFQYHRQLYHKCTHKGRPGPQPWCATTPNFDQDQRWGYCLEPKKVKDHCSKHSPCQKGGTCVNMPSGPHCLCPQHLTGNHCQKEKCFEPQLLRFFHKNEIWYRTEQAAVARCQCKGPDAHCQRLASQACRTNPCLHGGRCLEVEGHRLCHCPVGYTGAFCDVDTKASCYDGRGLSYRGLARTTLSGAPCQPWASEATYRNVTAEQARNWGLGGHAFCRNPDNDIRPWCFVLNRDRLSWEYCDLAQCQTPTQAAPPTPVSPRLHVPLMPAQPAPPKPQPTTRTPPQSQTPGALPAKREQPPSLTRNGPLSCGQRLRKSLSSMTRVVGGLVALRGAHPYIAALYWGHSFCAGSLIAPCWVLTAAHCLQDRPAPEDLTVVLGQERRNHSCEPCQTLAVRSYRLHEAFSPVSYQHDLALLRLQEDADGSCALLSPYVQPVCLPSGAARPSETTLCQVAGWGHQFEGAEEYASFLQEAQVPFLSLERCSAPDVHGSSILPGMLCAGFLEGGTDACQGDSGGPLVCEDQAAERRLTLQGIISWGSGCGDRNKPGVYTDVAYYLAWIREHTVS

[11] = biological target: Coagulation factor XI (Homo sapiens) (UniProt P03951); assay: Inhibition of factor 11a (unknown origin) at IC50 using S-2366 as substrate preincubated for 1 min followed by chromogenic substrate addition and measured for 2 mins; conditions: time 3.0 min
[12] = biological target: T4, Coagulation factor XII (Homo sapiens); assay: Inhibition of factor 12a (unknown origin) at IC50 using kallikrein chromogenic substrate preincubated for 1 min followed by chromogenic substrate addition and measured for 2 mins; conditions: time 3.0 min
[13] = biological target: Prothrombin (Homo sapiens) (UniProt P00734); assay: Inhibition of factor 2a (unknown origin) at IC90 preincubated for 1 min followed by chromogenic substrate addition and measured for 2 mins in presence of AT-III; conditions: time 3.0 min
[14] = biological target: Prothrombin (Homo sapiens) (UniProt P00734); assay: Inhibition of factor 2a (unknown origin) at IC50 preincubated for 1 min followed by chromogenic substrate addition and measured for 2 mins in presence of AT-III; conditions: time 3.0 min
Plasma [15] = assay: Anticoagulation activity in human plasma assessed as drug level causing 20 times doubling of APTT preincubated for 2 mins followed by APTT reagent and measured after 3 mins by coagulometric method relative to dHG-5; assay type: functional; conditions: time 5 min
[16] = biological target: Coagulation factor X (Homo sapiens) (UniProt P00742); assay: Inhibition of factor 10a (unknown origin) at IC90 preincubated for 1 min followed by chromogenic substrate addition and measured for 2 mins in presence of AT-III relative to control; conditions: time 3.0 min
Rattus norvegicus [17] = assay: Antithrombotic activity in thromboplastin and stasis-induced Sprague-Dawley rat deep venous thrombosis model assessed as reduction in venous thrombosis at 1.66 mg/kg, sc administered 1 hr prior to thromboplastin addition for 20 secs followed by establishment of stasis for 20 mins relative to dHG-5; assay type: functional; conditions: time 80.33 min, 1.339 h
Rattus norvegicus [18] = assay: Antithrombotic activity in thromboplastin and stasis-induced Sprague-Dawley rat deep venous thrombosis model assessed as reduction in venous thrombosis by measuring activity potency of oligosaccharides multiplied by the percentage of oligosaccharides in dHG-5 at 1.66 mg/kg, sc administered 1 hr prior to thromboplastin addition for 20 secs followed by establishment of stasis for 20 mins relative …; assay type: functional; conditions: time 80.33 min, 1.339 h
Coagulation factor IX [19] = biological target: T3, Coagulation factor IX; assay: Inhibition of factor 9a (unknown origin) binding to immobilized biotinylated oHG-11 assessed as activity potency of oligosaccharides multiplied by the percentage of oligosaccharides in dHG-5 by biolayer interferometry relative to dHG-5
[20] = biological target: T2, Coagulation factor VII (Homo sapiens); assay: Inhibition of factor 7a (unknown origin) at IC50 using pefachrome factor VIIa as substrate preincubated for 1 min followed by chromogenic substrate addition and measured for 2 mins in presence of AT-III; conditions: time 3.0 min
[21] = biological target: Coagulation factor XI (Homo sapiens) (UniProt P03951); assay: Inhibition of factor 11a (unknown origin) at IC90 using S-2366 as substrate preincubated for 1 min followed by chromogenic substrate addition and measured for 2 mins in presence of AT-III; conditions: time 3.0 min

Chain of Coagulation factor XI (Homo sapiens) (P03951 19-387 limits assumed): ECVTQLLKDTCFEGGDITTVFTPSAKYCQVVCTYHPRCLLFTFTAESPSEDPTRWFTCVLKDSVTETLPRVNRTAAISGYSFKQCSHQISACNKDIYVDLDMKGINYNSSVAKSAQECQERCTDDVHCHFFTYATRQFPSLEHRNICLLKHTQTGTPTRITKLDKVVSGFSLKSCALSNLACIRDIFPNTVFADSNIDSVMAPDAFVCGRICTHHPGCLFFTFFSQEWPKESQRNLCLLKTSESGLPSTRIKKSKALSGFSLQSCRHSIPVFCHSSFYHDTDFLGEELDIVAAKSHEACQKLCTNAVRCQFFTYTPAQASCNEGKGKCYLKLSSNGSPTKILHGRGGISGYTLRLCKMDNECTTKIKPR
Chain of Coagulation factor XI (Homo sapiens) (P03951 388-625 limits assumed): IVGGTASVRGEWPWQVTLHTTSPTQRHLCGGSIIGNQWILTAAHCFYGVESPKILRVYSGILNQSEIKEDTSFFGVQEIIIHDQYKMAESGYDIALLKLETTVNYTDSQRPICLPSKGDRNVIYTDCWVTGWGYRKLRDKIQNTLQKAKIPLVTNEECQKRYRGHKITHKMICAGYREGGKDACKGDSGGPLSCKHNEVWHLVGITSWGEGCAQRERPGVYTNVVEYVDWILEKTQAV
Chain of Coagulation factor X (Homo sapiens) (P00742 41-179 limits assumed): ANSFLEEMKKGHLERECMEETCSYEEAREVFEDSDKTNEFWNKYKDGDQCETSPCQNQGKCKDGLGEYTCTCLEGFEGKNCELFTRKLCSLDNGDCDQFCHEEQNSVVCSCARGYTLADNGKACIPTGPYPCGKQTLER
Chain of Coagulation factor X (Homo sapiens) (P00742 235-488 limits assumed): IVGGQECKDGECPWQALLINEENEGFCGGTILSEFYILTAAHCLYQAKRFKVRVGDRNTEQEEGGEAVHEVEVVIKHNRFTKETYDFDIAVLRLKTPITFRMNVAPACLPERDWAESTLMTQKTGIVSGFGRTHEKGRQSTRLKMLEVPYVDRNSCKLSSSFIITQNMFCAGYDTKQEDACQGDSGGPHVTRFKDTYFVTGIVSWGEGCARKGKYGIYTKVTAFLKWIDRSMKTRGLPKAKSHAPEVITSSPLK
T3 sequence (P00740 47-191 limits assumed): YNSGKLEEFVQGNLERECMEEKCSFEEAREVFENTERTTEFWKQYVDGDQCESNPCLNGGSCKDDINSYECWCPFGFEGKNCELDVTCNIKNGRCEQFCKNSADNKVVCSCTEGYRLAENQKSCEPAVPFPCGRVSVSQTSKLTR
T3 sequence (P00740 227-461 limits assumed): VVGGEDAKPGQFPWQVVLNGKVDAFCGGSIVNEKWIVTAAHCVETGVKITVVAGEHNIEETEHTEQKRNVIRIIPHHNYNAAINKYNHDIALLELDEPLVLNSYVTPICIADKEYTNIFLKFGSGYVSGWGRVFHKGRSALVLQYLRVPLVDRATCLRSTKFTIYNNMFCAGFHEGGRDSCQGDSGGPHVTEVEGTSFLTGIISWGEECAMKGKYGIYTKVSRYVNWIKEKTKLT

inhibition [1]: inactive
Ratio [2]: 403 U
inhibition (active/not active) [3]: inactive
inhibition [4]: inactive
inhibition [5]: inactive
Ratio (Coagulation factor IX [6]): 235 U
Ratio [8]: 19.1 U
inhibition [9]: inactive
inhibition [10]: inactive
inhibition [11]: inactive
inhibition [12]: inactive
inhibition [13]: Active
inhibition [14]: inactive
inhibition [16]: inactive
Ratio (Coagulation factor IX [19]): 11.2 U
inhibition [20]: inactive
inhibition [21]: Active
Structure (SMILES): CC(=O)N[C@H]1[C@H](O[C@H]2[C@H](O[C@@H]3O[C@@H](C)[C@@H](OS(=O)(=O)[O-])[C@@H](OS(=O)(=O)O)[C@@H]3O)[C@@H](O)[C@H](O[C@@H]3[C@@H](NC(C)=O)[C@H](O[C@H]4[C@H](O[C@@H]5O[C@@H](C)[C@@H](OS(=O)(=O)[O-])[C@@H](OS(=O)(=O)O)[C@@H]5O)[C@@H](O)[C@H](O[C@@H]5[C@@H](NC(C)=O)[C@H](O[C@H]6[C@H](O[C@@H]7O[C@@H](C)[C@@H](OS(=O)(=O)[O-])[C@@H](OS(=O)(=O)O)[C@@H]7O)[C@@H](O)[C@H](O[C@@H]7[C@@H](NC(C)=O)[C@H](O[C@H]8[C@H](O[C@@H]9O[C@@H](C)[C@@H](OS(=O)(=O)[O-])[C@@H](OS(=O)(=O)O)[C@@H]9O)[C@@H](O)[C@H](O[C@@H]9[C@@H](NC(C)=O)[C@H](O[C@@H]([C@H](O[C@@H]%10O[C@@H](C)[C@@H](OS(=O)(=O)[O-])[C@@H](OS(=O)(=O)O)[C@@H]%10O)[C@@H](O)CO)[C@H](O)C(=O)O)O[C@H](COS(=O)(=O)[O-])[C@@H]9OS(=O)(=O)[O-])O[C@@H]8C(=O)O)O[C@H](COS(=O)(=O)[O-])[C@@H]7OS(=O)(=O)[O-])O[C@@H]6C(=O)[O-])O[C@H](COS(=O)(=O)[O-])[C@@H]5OS(=O)(=O)[O-])O[C@@H]4C(=O)[O-])O[C@H](COS(=O)(=O)[O-])[C@@H]3OS(=O)(=O)[O-])O[C@@H]2C(=O)[O-])O[C@H](COS(=O)(=O)[O-])[C@H](OS(=O)(=O)[O-])[C@@H]1O[C@@H]1O[C@H](C(=O)[O-])[C@@H](O[C@@H]2O[C@H](COS(=O)(=O)[O-])[C@H](OS(=O)(=O)[O-])[C@H](O[C@@H]3O[C@H](C(=O)[O-])[C@@H](O[C@@H]4O[C@H](COS(=O)(=O)[O-])[C@H](OS(=O)(=O)[O-])[C@H](O[C@@H]5O[C@H](C(=O)O)[C@@H](O[C@@H]6O[C@H](COS(=O)(=O)[O-])[C@H](OS(=O)(=O)[O-])[C@H](O[C@@H]7OC(C(=O)O)=C[C@H](O[C@@H]8O[C@@H](C)[C@@H](OS(=O)(=O)[O-])[C@@H](OS(=O)(=O)O)[C@@H]8O)[C@H]7O)[C@H]6NC(C)=O)[C@H](O[C@@H]6O[C@@H](C)[C@@H](OS(=O)(=O)[O-])[C@@H](OS(=O)(=O)O)[C@@H]6O)[C@H]5O)[C@H]4NC(C)=O)[C@H](O[C@@H]4O[C@@H](C)[C@@H](OS(=O)(=O)[O-])[C@@H](OS(=O)(=O)O)[C@@H]4O)[C@H]3O)[C@H]2NC(C)=O)[C@H](O[C@@H]2O[C@@H](C)[C@@H](OS(=O)(=O)[O-])[C@@H](OS(=O)(=O)O)[C@@H]2O)[C@H]1O.[Na+].[Na+].[Na+].[Na+].[Na+].[Na+].[Na+].[Na+].[Na+].[Na+].[Na+].[Na+].[Na+].[Na+].[Na+].[Na+].[Na+].[Na+].[Na+].[Na+].[Na+].[Na+].[Na+].[Na+].[Na+].[Na+].[Na+].[Na+].[Na+].[Na+]
Ratio (Plasma [7]): 15.15 U
Ratio (Plasma [15]): 319.64 U
Ratio (Rattus norvegicus [17]): 284.73 U
Ratio (Rattus norvegicus [18]): 13.38 U
